Measurements taken from US20250339409A1, “USES OF PAN BET INHIBITORS” (VYNE THERAPEUTICS INC., priority 2021, published 2025).
“And” between values parts separate entries of the source, which are not always exact repeats. Equal entries are not always repeated. Marks after values point to notes of the source that are not given here.

System: anti collagen antibodies induced arthritis (ACAIA)
Assay: Anti collagen antibodies induced arthritis (ACAIA) in mice, intra-articular treatment: paw thickness, arthritis clinical score, body weight;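 further: mouse arthritis induced by IV anti-collagen mAb on day 0 plus IP LPS on day 4, with body weight, caliper paw thickness and 0-4 paw score tracked against a day 0 baseline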
[1] = 0.01 mg/kg IA (Group 5), Baseline
[2] = 0.01 mg/kg IA (Group 5), Day 10
[3] = 0.01 mg/kg IA (Group 5), Day 12
[4] = 0.1 mg/kg IA (Group 4), Baseline

## Cn1cc(-c2cccc(O)c2Oc2ccccc2)c2cc[nH]c2c1=O [BETi1]
[1]
  Clinical score of treated leg (Avg.): 0.00 points
  Paw thickness Avg. Delta untreated -treated: −0.08 mm
  Paw thickness of treated leg (Avg.): 2.06 mm
  Paw thickness of untreated leg (Avg.): 1.98 mm
  Percent change of weight per day (Av): 100.00%
  Δ clinical score untreated -treated, Avg. Delta: 0.00 points
0.01 mg/kg IA (Group 5), Day 3
  Clinical score of treated leg (Avg.): 0.00 points
  Paw thickness Avg. Delta untreated -treated: 0.02 mm
  Paw thickness of treated leg (Avg.): 2.12 mm
  Paw thickness of untreated leg (Avg.): 2.14 mm
  Percent change of weight per day (Av): 99.39%
  Δ clinical score untreated -treated, Avg. Delta: 0.00 points
0.01 mg/kg IA (Group 5), Day 4
  Clinical score of treated leg (Avg.): 0.00 points
  Paw thickness Avg. Delta untreated -treated: 0.00 mm
  Paw thickness of treated leg (Avg.): 2.18 mm
  Paw thickness of untreated leg (Avg.): 2.18 mm
  Percent change of weight per day (Av): 96.62%
  Δ clinical score untreated -treated, Avg. Delta: 0.00 points
0.01 mg/kg IA (Group 5), Day 5
  Clinical score of treated leg (Avg.): 0.00 points
  Paw thickness Avg. Delta untreated -treated: 0.00 mm
  Paw thickness of treated leg (Avg.): 2.18 mm
  Paw thickness of untreated leg (Avg.): 2.17 mm
  Percent change of weight per day (Av): 89.80%
  Δ clinical score untreated -treated, Avg. Delta: 0.00 points
0.01 mg/kg IA (Group 5), Day 6
  Clinical score of treated leg (Avg.): 0.71 points
  Paw thickness Avg. Delta untreated -treated: 0.05 mm
  Paw thickness of treated leg (Avg.): 2.34 mm
  Paw thickness of untreated leg (Avg.): 2.39 mm
  Percent change of weight per day (Av): 88.03%
  Δ clinical score untreated -treated, Avg. Delta: 0.14 points
0.01 mg/kg IA (Group 5), Day 7
  Clinical score of treated leg (Avg.): 1.86 points
  Paw thickness Avg. Delta untreated -treated: 0.02 mm
  Paw thickness of treated leg (Avg.): 2.60 mm
  Paw thickness of untreated leg (Avg.): 2.62 mm
  Percent change of weight per day (Av): 91.87%
  Δ clinical score untreated -treated, Avg. Delta: −0.29 points
0.01 mg/kg IA (Group 5), Day 8
  Clinical score of treated leg (Avg.): 1.86 points
  Paw thickness Avg. Delta untreated -treated: −0.01 mm
  Paw thickness of treated leg (Avg.): 2.64 mm
  Paw thickness of untreated leg (Avg.): 2.63 mm
  Percent change of weight per day (Av): 89.85%
  Δ clinical score untreated -treated, Avg. Delta: −0.14 points
[2]
  Clinical score of treated leg (Avg.): 2.14 points
  Paw thickness Avg. Delta untreated -treated: 0.05 mm
  Paw thickness of treated leg (Avg.): 2.68 mm
  Paw thickness of untreated leg (Avg.): 2.73 mm
  Percent change of weight per day (Av): 89.71%
  Δ clinical score untreated -treated, Avg. Delta: 0.00 points
[3]
  Clinical score of treated leg (Avg.): 2.43 points
  Paw thickness Avg. Delta untreated -treated: −0.20 mm
  Paw thickness of treated leg (Avg.): 3.01 mm
  Paw thickness of untreated leg (Avg.): 2.80 mm
  Percent change of weight per day (Av): 92.75%
  Δ clinical score untreated -treated, Avg. Delta: −1.00 points
[4]
  Clinical score of treated leg (Avg.): 0.00 points
  Paw thickness Avg. Delta untreated -treated: −0.04 mm
  Paw thickness of treated leg (Avg.): 2.06 mm
  Paw thickness of untreated leg (Avg.): 2.01 mm
  Percent change of weight per day (Av): 100.00%
  Δ clinical score untreated -treated, Avg. Delta: 0.00 points
0.1 mg/kg IA (Group 4), Day 3
  Clinical score of treated leg (Avg.): 0.00 points
  Paw thickness Avg. Delta untreated -treated: −0.05 mm
  Paw thickness of treated leg (Avg.): 2.18 mm
  Paw thickness of untreated leg (Avg.): 2.14 mm
  Percent change of weight per day (Av): 101.00%
  Δ clinical score untreated -treated, Avg. Delta: 0.00 points
0.1 mg/kg IA (Group 4), Day 4
  Clinical score of treated leg (Avg.): 0.00 points
  Paw thickness Avg. Delta untreated -treated: 0.04* mm
  Paw thickness of treated leg (Avg.): 2.17 mm
  Paw thickness of untreated leg (Avg.): 2.21 mm
  Percent change of weight per day (Av): 99.30%
  Δ clinical score untreated -treated, Avg. Delta: 0.00 points
0.1 mg/kg IA (Group 4), Day 5
  Clinical score of treated leg (Avg.): 0.00 points
  Paw thickness Avg. Delta untreated -treated: −0.02 mm
  Paw thickness of treated leg (Avg.): 2.17 mm
  Paw thickness of untreated leg (Avg.): 2.15 mm
  Percent change of weight per day (Av): 91.11%
  Δ clinical score untreated -treated, Avg. Delta: 0.00 points
0.1 mg/kg IA (Group 4), Day 6
  Clinical score of treated leg (Avg.): 1.57** points
  Paw thickness Avg. Delta untreated -treated: 0.06 mm
  Paw thickness of treated leg (Avg.): 2.57* mm
  Paw thickness of untreated leg (Avg.): 2.63 mm
  Percent change of weight per day (Av): 88.63%
  Δ clinical score untreated -treated, Avg. Delta: −0.43 points
0.1 mg/kg IA (Group 4), Day 7
  Clinical score of treated leg (Avg.): 2.00 points
  Paw thickness Avg. Delta untreated -treated: 0.05 mm
  Paw thickness of treated leg (Avg.): 2.82 mm
  Paw thickness of untreated leg (Avg.): 2.87 mm
  Percent change of weight per day (Av): 88.48%
  Δ clinical score untreated -treated, Avg. Delta: 0.00 points
0.1 mg/kg IA (Group 4), Day 8
  Clinical score of treated leg (Avg.): 2.29 points
  Paw thickness Avg. Delta untreated -treated: −0.05 mm
  Paw thickness of treated leg (Avg.): 2.86 mm
  Paw thickness of untreated leg (Avg.): 2.81 mm
  Percent change of weight per day (Av): 87.72%
  Δ clinical score untreated -treated, Avg. Delta: 0.00 points
0.1 mg/kg IA (Group 4), Day 10
  Clinical score of treated leg (Avg.): 2.43 points
  Paw thickness Avg. Delta untreated -treated: 0.05 mm
  Paw thickness of treated leg (Avg.): 2.94 mm
  Paw thickness of untreated leg (Avg.): 2.99 mm
  Percent change of weight per day (Av): 88.75%
  Δ clinical score untreated -treated, Avg. Delta: 0.14 points
0.1 mg/kg IA (Group 4), Day 12
  Clinical score of treated leg (Avg.): 2.57 points
  Paw thickness Avg. Delta untreated -treated: −0.05 mm
  Paw thickness of treated leg (Avg.): 3.10 mm
  Paw thickness of untreated leg (Avg.): 3.05 mm
  Percent change of weight per day (Av): 93.51%
  Δ clinical score untreated -treated, Avg. Delta: 0.43 points
1 mg/kg IA (Group 3), Baseline
  Clinical score of treated leg (Avg.): 0.00 points
  Paw thickness Avg. Delta untreated -treated: 0.04 mm
  Paw thickness of treated leg (Avg.): 2.05 mm
  Paw thickness of untreated leg (Avg.): 2.09 mm
  Percent change of weight per day (Av): 100.00%
  Percent change of weight per day (individual animal): 100%
  Δ clinical score untreated -treated, Avg. Delta: 0.00 points
1 mg/kg IA (Group 3), Day 3
  Clinical score of treated leg (Avg.): 0.00 points
  Paw thickness Avg. Delta untreated -treated: 0.02 mm
  Paw thickness of treated leg (Avg.): 2.11 mm
  Paw thickness of untreated leg (Avg.): 2.13 mm
  Percent change of weight per day (Av): 99.97%
  Percent change of weight per day (individual animal): 100.9804% and 98.22% and 102.4631% and 98.49% and 97.67%
  Δ clinical score untreated -treated, Avg. Delta: 0.00 points
1 mg/kg IA (Group 3), Day 4
  Clinical score of treated leg (Avg.): 0.00 points
  Paw thickness Avg. Delta untreated -treated: −0.03 mm
  Paw thickness of treated leg (Avg.): 2.22 mm
  Paw thickness of untreated leg (Avg.): 2.19 mm
  Percent change of weight per day (Av): 101.40%
  Percent change of weight per day (individual animal): 101.9608% and 100% (2×) and 103.9409% and 100.9302%
  Δ clinical score untreated -treated, Avg. Delta: 0.00 points
1 mg/kg IA (Group 3), Day 5
  Clinical score of treated leg (Avg.): 0.00 points
  Paw thickness Avg. Delta untreated -treated: 0.04 mm
  Paw thickness of treated leg (Avg.): 2.13 mm
  Paw thickness of untreated leg (Avg.): 2.17 mm
  Percent change of weight per day (Av): 91.68%
  Percent change of weight per day (individual animal): 93.63% and 89.78% and 94.58% and 88.94% and 89.3%
  Δ clinical score untreated -treated, Avg. Delta: 0.00 points
1 mg/kg IA (Group 3), Day 6
  Clinical score of treated leg (Avg.): 0.14 points
  Paw thickness Avg. Delta untreated -treated: 0.23* mm
  Paw thickness of treated leg (Avg.): 2.27* mm
  Paw thickness of untreated leg (Avg.): 2.50 mm
  Percent change of weight per day (Av): 89.39%
  Percent change of weight per day (individual animal): 91.67% and 82.67% and 92.61% and 90.45% and 89.77%
  Δ clinical score untreated -treated, Avg. Delta: 0.57 points
1 mg/kg IA (Group 3), Day 7
  Clinical score of treated leg (Avg.): 0.71 points
  Paw thickness Avg. Delta untreated -treated: 0.56* mm
  Paw thickness of treated leg (Avg.): 2.25** mm
  Paw thickness of untreated leg (Avg.): 2.80 mm
  Percent change of weight per day (Av): 89.93%
  Percent change of weight per day (individual animal): 89.71% and 84% and 93.1% and 89.45% and 90.23%
  Δ clinical score untreated -treated, Avg. Delta: 0.71 points
1 mg/kg IA (Group 3), Day 8
  Clinical score of treated leg (Avg.): 1.00 points
  Paw thickness Avg. Delta untreated -treated: 0.56 mm
  Paw thickness of treated leg (Avg.): 2.36* mm
  Paw thickness of untreated leg (Avg.): 2.92 mm
  Percent change of weight per day (Av): 91.22%
  Percent change of weight per day (individual animal): 90.69% and 88% and 92.61% and 89.95%
  Δ clinical score untreated -treated, Avg. Delta: 1.43 points
1 mg/kg IA (Group 3), Day 10
  Clinical score of treated leg (Avg.): 0.71 points
  Paw thickness Avg. Delta untreated -treated: 0.74 mm
  Paw thickness of treated leg (Avg.): 2.21* mm
  Paw thickness of untreated leg (Avg.): 2.95 mm
  Percent change of weight per day (Av): 93.11%
  Percent change of weight per day (individual animal): 92.16% and 94.67% and 93.6% and 93.47%
  Δ clinical score untreated -treated, Avg. Delta: 1.29 points
1 mg/kg IA (Group 3), Day 12
  Clinical score of treated leg (Avg.): 0.57 points
  Paw thickness Avg. Delta untreated -treated: 0.80 mm
  Paw thickness of treated leg (Avg.): 2.18 mm
  Paw thickness of untreated leg (Avg.): 2.98 mm
  Percent change of weight per day (Av): 97.09* percent
  Percent change of weight per day (individual animal): 95.1% and 100% and 98.03% and 96.98% and 93.49%
  Δ clinical score untreated -treated, Avg. Delta: 1.86 points
1 mg/kg IA, day 12
  reduction of arthritis score, treated vs untreated paw: 76.5%
  reduction of paw thickness, treated vs untreated paw: 26.8%
